Toxic doses and inconclusive results are not listed. Rule for the calls: active = survival T/C of 150% or more; inactive = T/C below 125% in these data.
System: P388 leukemia ip, CD2F1 mice, survival T/C
Assay: NCI In Vivo Anticancer Drug Screen. Data for tumor model P388 Leukemia (intraperitoneal) in CD2F1 (CDF1) mice
Conditions: endpoint: median survival time, higher = longer survival
Summary of the method: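 Mice carrying the transplanted tumor received test compound or vehicle. Survival was recorded in each group, and the value is the treated-group measurement divided by that of the vehicle-treated control group.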

[1] = dose: 50.0 mg/kg/injection, schedule: Q01DX009 (ip), vehicle: saline with Tween-80
[2] = dose: 100.0 mg/kg/injection, schedule: Q01DX009 (ip), vehicle: saline with Tween-80
[3] = dose: 200.0 mg/kg/injection, schedule: Q01DX009 (ip), vehicle: saline with Tween-80
[4] = dose: 50.0 mg/kg/injection, schedule: Q01DX005 (ip), vehicle: Klucel (hydroxypropylcellulose) (HPC)
[5] = dose: 100.0 mg/kg/injection, schedule: Q01DX005 (ip), vehicle: Klucel (hydroxypropylcellulose) (HPC)
[6] = dose: 60.0 mg/kg/injection, schedule: Q01DX005 (ip), vehicle: Klucel (hydroxypropylcellulose) (HPC)
[7] = dose: 120.0 mg/kg/injection, schedule: Q01DX005 (ip), vehicle: Klucel (hydroxypropylcellulose) (HPC)
[8] = dose: 240.0 mg/kg/injection, schedule: Q01DX005 (ip), vehicle: Klucel (hydroxypropylcellulose) (HPC)

Measured: T/C

NNC(=O)c1ccccc1
inactive: dose: 25.0 mg/kg/injection, schedule: Q01DX009 (ip), vehicle: saline with Tween-80 104 % of control | [1] 113 % of control | dose: 50.0 mg/kg/injection, schedule: Q04DX003 (ip), vehicle: saline with Tween-80 95 % of control | dose: 100.0 mg/kg/injection, schedule: Q04DX003 (ip), vehicle: saline with Tween-80 100 % of control

COC(=O)C1(F)C(=O)NC(=O)NC1O (stereo not drawn)
inactive: dose: 7.5 mg/kg/injection, schedule: Q01DX005 (ip), vehicle: saline 100 % of control | dose: 15.0 mg/kg/injection, schedule: Q01DX005 (ip), vehicle: saline 102 % of control | dose: 30.0 mg/kg/injection, schedule: Q01DX005 (ip), vehicle: saline 100 % of control

Cc1cc2c(c3ncccc13)OCN(Cc1ccc(Cl)c(Cl)c1)C2
inactive: [1] 100 % of control | [2] 98 % of control | [3] 100 % of control

CCc1nc(-c2ccccc2)nc2c1nc(-c1ccc(C)cc1)n2Nc1ccccc1
inactive: [4] 88 % of control | [5] 90 % of control | dose: 200.0 mg/kg/injection, schedule: Q01DX005 (ip), vehicle: Klucel (hydroxypropylcellulose) (HPC) 89 % of control

[N-]=[N+]=Nc1ccccc1C(=O)Nc1ccccc1C(N)=O
inactive: dose: 100.0 mg/kg/injection, schedule: Q04DX002 (ip), vehicle: Klucel (hydroxypropylcellulose) (HPC) 101 % of control | dose: 200.0 mg/kg/injection, schedule: Q04DX002 (ip), vehicle: Klucel (hydroxypropylcellulose) (HPC) 104 % of control | dose: 400.0 mg/kg/injection, schedule: Q04DX002 (ip), vehicle: Klucel (hydroxypropylcellulose) (HPC) 104 % of control

Nc1n[nH]c(CCCCc2nc(N)n[nH]2)n1
inactive: [6] 97 % of control | [7] 99 % of control | [8] 98 % of control

O=C1CN(C2CCCCC2Br)C(=O)CN1C1CCCCC1Br (stereo not drawn)
inactive: [6] 97 % of control | [7] 94 % of control | [8] 96 % of control

O=C1OC(=O)C2C3OC(C(Br)C3Br)C12 (stereo not drawn)
inactive: [4] 102 % of control | [5] 98 % of control

CC(C)COC(=O)C1(N)CCCC1
inactive: dose: 100.0 mg/kg/injection, schedule: Q04DX003 (ip), vehicle: saline 95 % of control | dose: 200.0 mg/kg/injection, schedule: Q04DX003 (ip), vehicle: saline 104 % of control | dose: 400.0 mg/kg/injection, schedule: Q04DX003 (ip), vehicle: saline 100 % of control

CCOC(CN=Cc1cc(C)c2[nH]c3ccccc3c2c1C)OCC
inactive: dose: 50.0 mg/kg/injection, schedule: Q01DX005 (ip), vehicle: saline with Tween-80 97 % of control | dose: 100.0 mg/kg/injection, schedule: Q01DX005 (ip), vehicle: saline with Tween-80 102 % of control | dose: 200.0 mg/kg/injection, schedule: Q01DX005 (ip), vehicle: saline with Tween-80 102 % of control

CCCCN(CCCC)C(=O)C(C)OC(C)=O (stereo not drawn)
inactive: dose: 25.0 mg/kg/injection, schedule: Q01DX005 (ip), vehicle: saline 95 % of control | dose: 50.0 mg/kg/injection, schedule: Q01DX005 (ip), vehicle: saline 95 % of control | dose: 100.0 mg/kg/injection, schedule: Q01DX005 (ip), vehicle: saline 108 % of control | dose: 200.0 mg/kg/injection, schedule: Q01DX005 (ip), vehicle: saline 105 % of control

CC(C)CC(Nc1ncnc2c1CCc1ccccc1-2)C(=O)O (stereo not drawn)
inactive: dose: 50.0 mg/kg/injection, schedule: Q04DX002 (ip), vehicle: saline with Tween-80 100 % of control | dose: 100.0 mg/kg/injection, schedule: Q04DX002 (ip), vehicle: saline with Tween-80 90 % of control | dose: 200.0 mg/kg/injection, schedule: Q04DX002 (ip), vehicle: saline with Tween-80 99 % of control

COC(=O)c1cc(OCC#CC#CCOc2ccc(O)c(C(=O)OC)c2)ccc1O
inactive: dose: 60.0 mg/kg/injection, schedule: Q01DX005 (ip), vehicle: saline with Tween-80 95 % of control | dose: 120.0 mg/kg/injection, schedule: Q01DX005 (ip), vehicle: saline with Tween-80 89 % of control | dose: 240.0 mg/kg/injection, schedule: Q01DX005 (ip), vehicle: saline with Tween-80 86 % of control

CC(NCNc1ccc2ccccc2c1)C(=O)O (stereo not drawn)
inactive: [1] 104 % of control | [2] 106 % of control | [3] 98 % of control

— PubChem BioAssay AID330 (DTP/NCI, 2004)
